From patent US20250214942A1, “INHIBITORS OF RECEPTOR INTERACTING PROTEIN KINASE I FOR THE TREATMENT OF DISEASE” (Board of Regents, The University of Texas System, priority 2019, published 2025)
Like-named read-outs stand apart in the source and are kept apart here.

How the values were obtained:
RIPK1 = RIPK1 (Homo sapiens (Human), UniProt Q13546); experiment: ADP-Glo kinase assay (RIPK1 activity, conversion of ATP to ADP); assay type: biochemical; settings: 5 nM RIPK1, 50 μM ATP, 6 h reaction; read-out: RIPK1 Enzyme Avg IC50
How it was run: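 ADP-Glo luminescence of ATP-to-ADP conversion by 5 nM RIPK1 with 50 μM ATP (final), 6 h reaction after 10 min compound preincubation at rt. Buffer was 50 mM HEPES pH 7.5, 30 mM MgCl2, 0.05% BSA, 0.02% CHAPS. IC50 from four-parameter logistic fit.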

[1] = system: human monocytic cell line U937; experiment: Human U937 cellular necroptosis assay (TNFalpha + z-VAD-FMK, Cell Titer-Glo viability); assay type: cell-based; settings: U937 cells, 25 ng/mL human TNFalpha + 25 μM z-VAD-FMK, read-out: hU937 Avg IC50
How it was run: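 Cells resuspended in phenol red-free RPMI with 10% FBS, stimulated with 25 ng/mL human TNFalpha plus 25 μM z-VAD-FMK, then given serially diluted compound for 22 h at 37° C, 5% CO2. Viability by Cell Titer-Glo 2.0 luminescence; IC50 from four-parameter logistic fit, averaged across runs.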

RIPK1, sequence (Q13546 1-327): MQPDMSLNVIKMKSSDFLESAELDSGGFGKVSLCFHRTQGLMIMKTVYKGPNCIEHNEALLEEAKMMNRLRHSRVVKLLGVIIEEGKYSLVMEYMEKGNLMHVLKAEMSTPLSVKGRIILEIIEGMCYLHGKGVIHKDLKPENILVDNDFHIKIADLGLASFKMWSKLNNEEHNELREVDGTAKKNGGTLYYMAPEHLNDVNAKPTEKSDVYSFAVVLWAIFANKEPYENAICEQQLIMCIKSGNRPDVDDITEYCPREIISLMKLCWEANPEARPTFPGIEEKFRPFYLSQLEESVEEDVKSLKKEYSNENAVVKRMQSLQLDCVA

| IC50 (RIPK1) [nM] | SMILES | IC50 ([1]; Homo sapiens, U-937, 22 h) [nM] | IC50 ([1]; 22 h) [nM] |
| --- | --- | --- | --- |
| 82 | COc1cnn(CC23CC(C(=O)N4N=CCC4c4cc(F)cc(F)c4)(C2)C3)c1 (stereo not shown) [Example 160, (5-(3,5-difluorophenyl)-4,5-dihydro-1H-pyrazol-1-yl)(3-((4-methoxy-1H-pyrazol-1-yl)methyl)bicyclo[1.1.1]-pentan-1-yl)methanone] | 404 | – |
| 50 | O=C(N1N=CCC1c1cc(F)cc(F)c1)C12CC(Cn3cc(F)c4ncc(F)cc43)(C1)C2 (stereo not shown) [Example 161, (3-((3,6-difluoro-1H-pyrrolo-[3,2-b]pyridin-1-yl)methyl)-bicyclo[1.1.1]pentan-1-yl)(5-(3,5-difluorophenyl)-4,5-dihydro-1H-pyrazol-1-yl)methanone] | 157 | – |
| 46 | CN(CC12CC(C(=O)N3N=CCC3c3cc(F)cc(F)c3)(C1)C2)c1cc(C#N)ncn1 (stereo not shown) [Example 162, 6-(((3-(5-(3,5-difluorophenyl)-4,5-dihydro-1H-pyrazole-1-carbonyl)-bicyclo[1.1.1]pentan-1-yl)methyl)(methyl)amino)pyrimidine-4-carbonitrile] | 210 | – |
| 114 | N#Cc1cn(CC23CC(C(=O)N4N=CCC4c4cc(F)cc(F)c4)(C2)C3)nn1 (stereo not shown) [Example 163, 1-((3-(5-(3,5-difluorophenyl)-4,5-dihydro-1H-pyrazole-1-carbonyl)bicyclo[1.1.1]-pentan-1-yl)methyl)-1H-1,2,3-triazole-4-carbonitrile] | 730 | – |
| 57 | COc1ccn(CC23CC(C(=O)N4N=CCC4c4cc(F)cc(F)c4)(C2)C3)n1 (stereo not shown) [Example 164, (5-(3,5-difluorophenyl)-4,5-dihydro-1H-pyrazol-1-yl)(3-((3-methoxy-1H-pyrazol-1-yl)methyl)bicyclo[1.1.1]-pentan-1-yl)methanone] | 214 | – |
| 308 | N#Cc1cnn(CC23CC(C(=O)N4N=CCC4c4cncc(F)c4)(C2)C3)c1 (stereo not shown) [Example 166, 1-((3-(5-(5-fluoropyridin-3-yl)-4,5-dihydro-1H-pyrazole-1-carbonyl)bicyclo[1.1.1]-pentan-1-yl)methyl)-1H-pyrazole-4-carbonitrile] | 1970 | – |
| 306 | N#Cc1cnn(CC23CC(C(=O)N4N=CCC4c4cnccn4)(C2)C3)c1 (stereo not shown) [Example 167, 1-((3-(5-(pyrazin-2-yl)-4,5-dihydro-1H-pyrazole-1-carbonyl)bicyclo[1.1.1]-pentan-1-yl)methyl)-1H-pyrazole-4-carbonitrile] | 1880 | – |
| 865 | N#Cc1cncc(C2CC=NN2C(=O)C23CC(Cn4cc(C#N)cn4)(C2)C3)c1 (stereo not shown) [Example 168, 5-(1-(3-((4-cyano-1H-pyrazol-1-yl)methyl)-bicyclo[1.1.1]pentane-1-carbonyl)-4,5-dihydro-1H-pyrazol-5-yl)nicotinonitrile] | 6190 | – |
| 343 | Cc1cncc(C2CC=NN2C(=O)C23CC(Cn4cc(C#N)cn4)(C2)C3)n1 (stereo not shown) [Example 169, 1-((3-(5-(6-methylpyrazin-2-yl)-4,5-dihydro-1H-pyrazole-1-carbonyl)bicyclo[1.1.1]-pentan-1-yl)methyl)-1H-pyrazole-4-carbonitrile] | 3310 | – |
| 4670 | Cc1csc(C2CC=NN2C(=O)C23CC(Cn4cc(C#N)cn4)(C2)C3)n1 (stereo not shown) [Example 170, 1-((3-(5-(4-methylthiazol-2-yl)-4,5-dihydro-1H-pyrazole-1-carbonyl)bicyclo[1.1.1]-pentan-1-yl)methyl)-1H-pyrazole-4-carbonitrile] | 9890 | – |
| 670 | Cc1ccc(C2CC=NN2C(=O)C23CC(Cn4cc(C#N)cn4)(C2)C3)nc1 (stereo not shown) [Example 171, 1-((3-(5-(5-methylpyridin-2-yl)-4,5-dihydro-1H-pyrazole-1-carbonyl)bicyclo[1.1.1]-pentan-1-yl)methyl)-1H-pyrazole-4-carbonitiile] | 3700 | – |
| 4350 | CC1CC(c2cccc(F)c2)N(C(=O)C23CC(Cn4cc(C#N)cn4)(C2)C3)C1 (stereo not shown) [Example 172, 1-((3-(2-(3-fluorophenyl)-4-methylpyrrolidine-1-carbonyl)bicyclo[1.1.1]-pentan-1-yl)methyl)-1H-pyrazole-4-carbonitrile] | > 10000 | – |
| 9.1 | N#Cc1cncc(C2CC=NN2C(=O)C23CC(Cn4ncc5cc(C#N)ccc54)(C2)C3)c1 (stereo not shown) [Example 173, 1-((3-(5-(5-cyanopyridin-3-yl)-4,5-dihydro-1H-pyrazole-1-carbonyl)bicyclo[1.1.1]-pentan-1-yl)methyl)-1H-indazole-5-carbonitrile] | 53 | – |
| 48 | Cc1ccc(C2CC=NN2C(=O)C23CC(Cn4ncc5cc(C#N)ccc54)(C2)C3)nc1 (stereo not shown) [Example 174, 1-((3-(5-(5-methylpyridin-2-yl)-4,5-dihydro-1H-pyrazole-1-carbonyl)bicyclo[1.1.1]-pentan-1-yl)methyl)-1H-indazole-5-carbonitrile] | 63 | – |
| 16 | N#Cc1cccc(C2CC=NN2C(=O)C23CC(Cn4ncc5cc(C#N)ccc54)(C2)C3)c1 (stereo not shown) [Example 175, 1-((3-(5-(3-cyanophenyl)-4,5-dihydro-1H-pyrazole-1-carbonyl)bicyclo[1.1.1]-pentan-1-yl)methyl)-1H-indazole-5-carbonitrile] | 47 | – |
| 19 | N#Cc1ccc2c(cnn2CC23CC(C(=O)N4CC(F)CC4c4cccc(F)c4)(C2)C3)c1 (stereo not shown) [Example 176, 1-((3-(4-fluoro-2-(3-fluoro-phenyl)pyrrolidine-1-carbonyl)bicyclo[1.1.1]-pentan-1-yl)methyl)-1H-indazole-5-carbonitrile] | 87 | – |
| 54 | N#Cc1ccc2c(cnn2CC23CC(C(=O)N4CCC4c4ccccc4)(C2)C3)c1 (stereo not shown) [Example 177, 1-((3-(2-phenylazetidine-1-carbonyl)bicyclo[1.1.1]-pentan-1-yl)methyl)-1H-indazole-5-carbonitrile] | 536 | – |
| 103 | N#Cc1ncn(CC23CC(C(=O)N4N=CCC4c4cc(F)cc(F)c4)(C2)C3)n1 (stereo not shown) [Example 178, 1-((3-(5-(3,5-difluorophenyl)-4.5-dihydro-1H-pyrazole-1-carbonyl)bicyclo[1.1.1]-pentan-1-yl)methyl)-1H-1,2,4-triazole-3-carbonitrile] | 228 | – |

| SMILES | IC50 (RIPK1) [nM] | IC50 ([1]; Homo sapiens, U-937, 22 h) [nM] | IC50 ([1]; 22 h) [nM] |
| --- | --- | --- | --- |
| N#Cc1cnc2ncn(CC34CC(C(=O)N5N=CCC5c5cc(F)cc(F)c5)(C3)C4)c2c1 (stereo not shown) [Example 184, 1-((3-(5-(3,5-difluorophenyl)-4,5-dihydro-1H-pyrazole-1-carbonyl)bicyclo[1.1.1]-pentan-1-yl)methyl)-1H-imidazo[4,5-b]pyridine-6-carbonitrile or 3-((3-(5-(3,5-difluorophenyl)-4,5-dihydro-1H-pyrazole-1-carbonyl)bicyclo[1.1.1]pentan-1-yl)methyl)-3H-imidazo[4,5-b]pyridine-6-carbonitrile] | 136 | – | 1240 |
| O=C(N1N=CCC1c1cc(F)cc(F)c1)C12CC(Cn3cnc4ncccc43)(C1)C2 (stereo not shown) [Example 193, (3-((1H-imidazo[4,5-b]-pyridin-1-yl)methyl)-bicyclo[1.1.1]pentan-1-yl)(5-(3,5-difluorophenyl)-4,5-dihydro-1H-pyrazol-1-yl)methanone and (3-((3H-imidazol[4,5-b]pyridin-3-yl)methyl)-bicyclo[1.1.1]pentan-1-yl)(5-(3,5-difluorophenyl)-4,5-dihydro-1H-pyrazol-1-yl)methanone] | 292 | – | 1390 |
